Laboratory results as given in the NIST ThermoML archive (doi:10.1021/acs.jced.7b01091).
Numbers after ± are expanded uncertainties.

Settings: Liquid; for vapor or sublimation pressure: Closed cell (Static) method; for mass density: 101.33 kPa, Vibrating tube method

Question: Which results are given for `C1COCO1` [1,3-dioxolane]?
Answer: vapor or sublimation pressure (275 K): 3.86 ± 0.08 kPa; vapor or sublimation pressure (284.94 K): 6.74 ± 0.14 kPa; vapor or sublimation pressure (294.82 K): 11.33 ± 0.23 kPa; mass density (298.15 K): 1058.76 ± 2.1 kg/m3; vapor or sublimation pressure (298.15 K): 13.31 ± 0.27 kPa; vapor or sublimation pressure (304.79 K): 18.26 ± 0.37 kPa; vapor or sublimation pressure (314.76 K): 28.28 ± 0.57 kPa; vapor or sublimation pressure (324.9 K): 43.07 ± 0.87 kPa; vapor or sublimation pressure (334.85 K): 62.99 ± 1.3 kPa; vapor or sublimation pressure (344.82 K): 89.85 ± 1.8 kPa; vapor or sublimation pressure (350.77 K): 109.39 ± 2.2 kPa

Question: Which results are given for `C1COCCO1` [1,4-dioxane]?
Answer: vapor or sublimation pressure (284.59 K): 2.23 ± 0.05 kPa; vapor or sublimation pressure (294.82 K): 3.92 ± 0.08 kPa; mass density (298.15 K): 1027.87 ± 2.1 kg/m3; vapor or sublimation pressure (298.15 K): 4.68 ± 0.09 kPa; vapor or sublimation pressure (304.81 K): 6.58 ± 0.13 kPa; vapor or sublimation pressure (314.76 K): 10.54 ± 0.21 kPa; vapor or sublimation pressure (324.92 K): 16.71 ± 0.34 kPa; vapor or sublimation pressure (334.92 K): 25.52 ± 0.51 kPa; vapor or sublimation pressure (344.89 K): 37.55 ± 0.75 kPa; vapor or sublimation pressure (354.92 K): 54.11 ± 1.1 kPa

Question: What does the source list for `C1CCOCC1` [tetrahydropyran]?
Answer: vapor or sublimation pressure (275.59 K): 2.85 ± 0.06 kPa; vapor or sublimation pressure (285.53 K): 4.91 ± 0.1 kPa; vapor or sublimation pressure (295.42 K): 8.07 ± 0.16 kPa; mass density (298.15 K): 879.16 ± 1.8 kg/m3; vapor or sublimation pressure (298.15 K): 9.25 ± 0.19 kPa; vapor or sublimation pressure (305.37 K): 12.85 ± 0.26 kPa; vapor or sublimation pressure (315.36 K): 19.9 ± 0.4 kPa; vapor or sublimation pressure (325.65 K): 29.99 ± 0.6 kPa; vapor or sublimation pressure (335.6 K): 43.81 ± 0.88 kPa; vapor or sublimation pressure (345.59 K): 61.17 ± 1.2 kPa; vapor or sublimation pressure (355.49 K): 84.29 ± 1.7 kPa

Question: With `ClCCCl` [1,2-dichloroethane] as the compound, how does the “vapor or sublimation pressure” value (284.87 K) read?
Answer: 5.38 ± 0.11 kPa

Question: And the “vapor or sublimation pressure” value (294.83 K)?
Answer: 8.97 ± 0.18 kPa

Question: What about the “vapor or sublimation pressure” value (294.84 K) of the same compound?
Answer: 8.96 ± 0.18 kPa

Question: And the mass density (298.15 K)?
Answer: 1245.68 ± 2.5 kg/m3

Question: What about the “vapor or sublimation pressure” value (298.15 K) of the same compound?
Answer: 10.53 ± 0.21 kPa

Question: What about the “vapor or sublimation pressure” value (304.82 K) of the same compound?
Answer: 14.34 ± 0.29 kPa

Question: And the “vapor or sublimation pressure” value (314.81 K)?
Answer: 22.19 ± 0.45 kPa

Question: And the “vapor or sublimation pressure” value (314.83 K)?
Answer: 22.18 ± 0.45 kPa

Question: And the “vapor or sublimation pressure” value (324.83 K)?
Answer: 33.27 ± 0.67 kPa

Question: What about the “vapor or sublimation pressure” value (334.82 K) of the same compound?
Answer: 48.47 ± 0.97 kPa

Question: What about the “vapor or sublimation pressure” value (344.81 K) of the same compound?
Answer: 67.97 ± 1.4 kPa

Question: And the “vapor or sublimation pressure” value (354.89 K)?
Answer: 94.96 ± 1.9 kPa
